Data set [1] has as its system NIH3T3. Kind of data set: Cytotoxicity against mouse 3T3 cells at 100 uM after 72 hrs by MTT assay. It is filed as cell-based. The following applies: nih3t3, 72 h.
Data set [2] relates to J774.2. Kind of data set: Induction of LPS-induced NO production in mouse J774.2 cells at 60 uM after 48 hrs by spectrophotometry. It is filed as functional.
Data set [3] deals with THP-1. Kind of data set: Induction of LPS-B-induced TNF-alpha production in human THP1 cells at 60 uM after 4 hrs. It counts as functional.
Data set [4] in a line: Antiinflammatory activity in human neutrophils assessed as inhibition of opsonized zymosan A-mediated superoxide anions production by WST-1 based respiratory burst assay. It counts as functional, cell-based, Neutrophil. The following applies: for pIC50: Homo sapiens, Neutrophil, read-out: IC50; for IC50: neutrophil. On the technique in general: Tetrazolium dyes change colour on reduction, which living cells bring about.

For data set [5], the system named is J774.2. Kind of data set: Antiinflammatory activity in mouse J774.2 cells assessed as inhibition of LPS-induced NO production at 60 uM after 48 hrs by spectrophotometry. It counts as functional. The following applies: J774.2, 48 h.
The test system of data set [6] is THP-1. Nature of the data set: Antiinflammatory activity in human THP1 cells assessed as inhibition of LPS-B-induced TNF-alpha production at 60 uM after 4 hrs. It is filed as functional. The following applies: THP-1, 4 h.

pIC50: −log10 of the molar value.

Usually pIC50 stands for the IC50 on a negative log10 scale, so that one unit is a factor of ten. In general, inhibition refers to the relative decrease from the control value, in per cent.

With `COc1c(OC(C)C)cc2c(c1OC(C)C)[C@@H]1O[C@H](CO)[C@@H](O)[C@H](O)[C@H]1OC2=O`, the Activity entry in data set [1] is recorded as “Non-toxic”; in data set [2], 5.5%; in data set [3] it was 8.44%. Also, the pIC50 in data set [4] was 3.52.

Take `C=CCCOc1cc2c(c(OCCC=C)c1OC)[C@@H]1O[C@H](CO)[C@@H](O)[C@H](O)[C@H]1OC2=O`: the Activity result is on record as “Non-toxic” in data set [1] and 13.27% in data set [3]. Further, the inhibition at 60 µM in data set [5] was 3.6%. For the same molecule, in data set [4], the pIC50 is 3.54.

On to `CCCCCOc1cc2c(c(OCCCCC)c1OC)[C@@H]1O[C@H](CO)[C@@H](O)[C@H](O)[C@H]1OC2=O`, for which, in data set [1], the Activity result was “Non-toxic”. Also, the inhibition at 60 µM in data set [5] came out at 3.4%; in data set [6], 20.9%. Further, in data set [4], the negative-log IC50 (pIC50) is 3.53.

As to `CCOc1cc2c(c(OCC)c1OC)[C@@H]1O[C@H](CO)[C@@H](O)[C@H](O)[C@H]1OC2=O`, the Activity result in data set [1] is listed as “Non-toxic”. Moreover, the inhibition at 60 µM in data set [5] stood at 54.5%; in data set [6] it was 98.6%. In addition, the negative logarithm of the IC50 (pIC50) in data set [4] is 3.49.

`COc1cc2c(c(OC)c1OC)[C@@H]1O[C@H](CO)[C@@H](O)[C@H](O)[C@H]1OC2=O`: the Activity result in data set [1] was “Non-toxic”. The inhibition at 60 µM in data set [5] was determined as 47.6%; in data set [6], 0.44%. The IC50 result in data set [4] is recorded as “Not Active”.

Regarding `C#CCOc1cc2c(c(OCC#C)c1OC)[C@@H]1O[C@H](CO)[C@@H](O)[C@H](O)[C@H]1OC2=O`, the Activity result in data set [1] is given as “Non-toxic”; in data set [3], 27.56%. For the same molecule, in data set [5], the inhibition at 60 µM came out at 19.4%. Besides, the pIC50 in data set [4] is 3.42.

In the case of `CCCCCCCOc1cc2c(c(OCCCCCCC)c1OC)[C@@H]1O[C@H](CO)[C@@H](O)[C@H](O)[C@H]1OC2=O`, the Activity entry in data set [1] is “Non-toxic”. The inhibition at 60 µM amounted to 18% in data set [5] and 28.7% in data set [6]. In addition, the pIC50 in data set [4] is 3.67.

`C=CCCCCOc1cc2c(c(OCCCCC=C)c1OC)[C@@H]1O[C@H](CO)[C@@H](O)[C@H](O)[C@H]1OC2=O`: the Activity entry in data set [1] is listed as “Non-toxic”. Besides, the inhibition at 60 µM in data set [5] stood at 9.4%; in data set [6], 17.7%. Further, the pIC50 in data set [4] was 3.57.

As to `C=CCOc1cc2c(c(OCC=C)c1OC)[C@@H]1O[C@H](CO)[C@@H](O)[C@H](O)[C@H]1OC2=O`, the Activity entry is recorded as “Non-toxic” in data set [1] and 18.41% in data set [3]. Also, the inhibition at 60 µM in data set [5] was 5.5%. Also, the pIC50 in data set [4] is 3.48.

`COc1c(OCC#N)cc2c(c1OCC#N)[C@@H]1O[C@H](CO)[C@@H](O)[C@H](O)[C@H]1OC2=O`: the Activity entry in data set [1] was “Non-toxic”; in data set [3], 26.21%. Moreover, the inhibition at 60 µM in data set [5] is 13.3%. In addition, the negative-log IC50 (pIC50) in data set [4] is 3.38.

Consider `CCCCOc1cc2c(c(OCCCC)c1OC)[C@@H]1O[C@H](CO)[C@@H](O)[C@H](O)[C@H]1OC2=O`, for which the Activity entry in data set [1] was “Non-toxic”. Further, the inhibition at 60 µM in data set [5] came out at 31.2%; in data set [6], 26.3%. For the same molecule, the pIC50 in data set [4] is 3.39.

As to `COc1c(OCC(=O)OC(C)(C)C)cc2c(c1OCC(=O)OC(C)(C)C)[C@@H]1O[C@H](CO)[C@@H](O)[C@H](O)[C@H]1OC2=O`, in data set [1], the Activity result is on record as “Non-toxic”. The inhibition at 60 µM in data set [5] is 16.3%; in data set [6], 9.6%. Further, in data set [4], the pIC50 was 3.32.

In the case of `CCCCCCCCOc1cc2c(c(OCCCCCCCC)c1OC)[C@@H]1O[C@H](CO)[C@@H](O)[C@H](O)[C@H]1OC2=O`, the figures for the Activity entry in data set [1] and in data set [3] were “Non-toxic” and 3.4%, respectively. The inhibition at 60 µM in data set [5] is 18%. Also, in data set [4], the negative-log IC50 (pIC50) was 3.65.

Regarding `CCCOc1cc2c(c(OCCC)c1OC)[C@@H]1O[C@H](CO)[C@@H](O)[C@H](O)[C@H]1OC2=O`, the figures for the Activity result in data set [1] and in data set [3] were “Non-toxic” and 5.57%, respectively. In addition, in data set [5], the inhibition at 60 µM came to 8.9%. Besides, the IC50 entry in data set [4] is reported as “Not Active”.

For the molecule `CCOC(=O)COc1cc2c(c(OCC(=O)OCC)c1OC)[C@@H]1O[C@H](CO)[C@@H](O)[C@H](O)[C@H]1OC2=O`, in data set [1], the Activity entry was “Non-toxic”. Further, the inhibition at 60 µM is 86.8% in data set [5] and 96.2% in data set [6]. Besides, the pIC50 in data set [4] was 3.60.

Consider `COc1c(O)cc2c(c1O)[C@@H]1O[C@H](CO)[C@@H](O)[C@H](O)[C@H]1OC2=O` [BERGENIN], for which the Activity result in data set [1] is given as “Non-toxic”; in data set [3], 7.91%. Besides, the inhibition at 60 µM in data set [5] worked out at 4.3%. Further, the pIC50 in data set [4] was 3.52.

With `COc1ccc2c(c1)c(CC(=O)O)c(C)n2C(=O)c1ccc(Cl)cc1` [INDOMETHACIN], in data set [4], the pIC50 was 3.57.

Consider `CNC(=N)NCCC[C@H](N)C(=O)O` [TILARGININE ACETATE], for which the inhibition at 60 µM in data set [5] was determined as 40%.

Values taken from ChEMBL document CHEMBL2016563, “Synthesis of new bergenin derivatives as potent inhibitors of inflammatory mediators NO and TNF-α” (Bioorg Med Chem Lett, 2012).
